Measurements reported in ChEMBL document CHEMBL1136024, “CCR3 antagonists: a potential new therapy for the treatment of asthma. Discovery and structure-activity relationships” (Bioorg Med Chem Lett, 2002).

What follows are molecules tested against T1, C-C chemokine receptor type 3 (Homo sapiens, UniProt P51677) (assay: In vitro inhibition if C-C chemokine receptor type 3 (CCR3) using 150p M [125I]-labeled human eotaxin).
T1 sequence (P51677 whole entry): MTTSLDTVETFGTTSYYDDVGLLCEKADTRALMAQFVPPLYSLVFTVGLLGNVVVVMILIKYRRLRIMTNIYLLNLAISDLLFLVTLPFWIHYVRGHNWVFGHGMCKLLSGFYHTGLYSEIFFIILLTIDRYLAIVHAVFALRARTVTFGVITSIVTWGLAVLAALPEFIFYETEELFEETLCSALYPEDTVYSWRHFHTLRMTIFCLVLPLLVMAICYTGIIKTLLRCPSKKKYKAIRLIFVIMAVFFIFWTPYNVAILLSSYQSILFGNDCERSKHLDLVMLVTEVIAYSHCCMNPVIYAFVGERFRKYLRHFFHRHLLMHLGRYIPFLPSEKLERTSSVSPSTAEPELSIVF
`CC(=O)c1cccc(NC(=O)NCCCN2CC[C@H](Cc3ccccc3)C[C@@H]2[C@H](C)O)c1` gave an IC50 of 20 nM.
`CN(C)c1ccc(NC(=O)NCCCN2CCC(Cc3ccccc3)CC2)cc1` was tested, and the IC50 was 1600 nM.
In the case of `O=C(NCCCN1CCC(Cc2ccc(F)cc2)CC1)Nc1ccccc1C(F)(F)F`, the IC50 is reported as 200 nM.
With `N#Cc1cccc(NC(=O)NCCN2CCC(Cc3ccccc3)CC2)c1` the IC50 was 500 nM.
For `COc1cccc(NC(=O)NCCCN2CCC(Cc3ccccc3)CC2)c1`, the IC50 was 300 nM.
In the case of `CN(C)c1ccc(NC(=O)NCCCN2CC[C@@H]3[C@H](C2)c2cccc4c2N3CC4)cc1`, the IC50 is reported as 4800 nM.
`CC(=O)c1ccc(NC(=O)NCCCN2CCC(Cc3ccc(F)cc3)CC2)cc1` gave an IC50 of 200 nM.
`O=C(NCCCN1CC[C@@H]2[C@H](C1)c1cccc3c1N2CC3)Nc1cccc(I)c1` showed an IC50 of 1100 nM.
In the case of `N#Cc1cccc(NC(=O)NCCCN2CCC(Cc3ccccc3F)CC2)c1`, the IC50 is reported as 200 nM.
`O=C(NCCCN1CC[C@@H]2[C@H](C1)c1cccc3c1N2CC3)Nc1ccc(I)cc1` showed an IC50 of 1500 nM.
`O=C(NCCCN1CCC(Cc2ccc(F)cc2)CC1)Nc1ccccc1` gave an IC50 of 30 nM.
Work on `CSc1ccc(NC(=O)NCCCN2CCC(Cc3ccc(F)cc3)CC2)cc1` yielded an IC50 of 40 nM.
`O=C(NCCN1CC[C@@H]2[C@H](C1)c1cccc3c1N2CC3)c1ccc(F)cc1` gave an IC50 of 8300 nM.
`CCC[C@H](O)[C@H]1C[C@@H](Cc2ccccc2)CCN1CCCNC(=O)Nc1cccc(C(C)=O)c1` gave an IC50 of 7 nM.
`COc1cccc(C(=O)NCCCCN2CCC(Cc3ccccc3)CC2)c1` was tested, and the IC50 was 1200 nM.
`CC(=O)c1cccc(NC(=O)NCCCN2CCC(Cc3ccc(F)cc3)CC2)c1` showed an IC50 of 10 nM.
With `CCCC[C@H](O)[C@H]1C[C@@H](Cc2ccc(F)cc2)CCN1CCCNC(=O)Nc1cccc(C(C)=O)c1` the IC50 was 5 nM.
Molecule `O=C(CCCN1CC[C@@H]2[C@H](C1)c1cccc3c1N2CC3)c1ccc(F)cc1` has an IC50 of 1100 nM.
`O=C(NCCCCN1CC[C@@H]2[C@H](C1)c1cccc3c1N2CC3)C12CC3CC(CC(C3)C1)C2` was tested, and the IC50 was 6600 nM.
For `O=C(NCCCN1CCC(Cc2ccc(F)cc2)CC1)Nc1cccc(-c2cccs2)c1`, the IC50 was 200 nM.
With `COc1cccc(NC(=O)N2CCO[C@@H](CN3CCC(Cc4ccc(F)cc4)CC3)C2)c1` the IC50 was 260 nM.
With `CCCC[C@H](O)[C@H]1C[C@@H](Cc2ccccc2)CCN1CCCNC(=O)Nc1cccc(-c2nnnn2C)c1` the IC50 was 1 nM.
`COc1ccc(C(=O)NCCCCN2CC[C@@H]3[C@H](C2)c2cccc4c2N3CC4)cc1` was tested, and the IC50 was 5100 nM.
Molecule `COc1cccc(NC(=O)N2CCCC(CCN3CCC(Cc4ccc(F)cc4)CC3)C2)c1` (racemic) has an IC50 of 250 nM.
Molecule `CC(=O)c1cccc(NC(=O)NCCCN2CC[C@H](Cc3ccccc3)C[C@@H]2C(C)(C)O)c1` has an IC50 of 200 nM.
Work on `CS(=O)(=O)c1ccc(NC(=O)NCCCN2CCC(Cc3ccc(F)cc3)CC2)cc1` yielded an IC50 of 70 nM.
Work on `O=C(NCCCCN1CCC(Cc2ccccc2)CC1)c1ccccc1` yielded an IC50 of 800 nM.
With `Cc1ccc(CC2CCN(CCCNC(=O)Nc3cccc(C#N)c3)CC2)cc1` the IC50 was 500 nM.
Work on `O=C(NCCCCN1CC[C@@H]2[C@H](C1)c1cccc3c1N2CC3)c1ccc(F)cc1` yielded an IC50 of 3900 nM.
In the case of `Cn1nnnc1-c1cccc(NC(=O)NCCCN2CCC(Cc3ccc(F)cc3)CC2)c1`, the IC50 is reported as 5 nM.
For `CC(=O)c1cccc(NC(=O)NCCCN2CC[C@H](Cc3ccccc3)C[C@@H]2[C@H](O)CC(C)C)c1`, the IC50 was 60 nM.
With `O=C(NCCCN1CCC(Cc2ccc(F)cc2)CC1)Nc1cccc(-c2ccco2)c1` the IC50 was 100 nM.
With `O=C(NCCCN1CCC(Cc2ccccc2)CC1)Nc1ccccc1` the IC50 was 400 nM.
In the case of `O=C(NCCCN1CCC(Cc2ccc(F)cc2)CC1)Nc1ccc(C(F)(F)F)cc1`, the IC50 is reported as 60 nM.
Molecule `CCC[C@H]1C[C@@H](Cc2ccccc2)CCN1CCCNC(=O)Nc1cccc(C(C)=O)c1` (stereo in doubt) has an IC50 of 200 nM.
Molecule `COc1cccc(NC(=O)N2CCCCC2CN2CCC(Cc3ccc(F)cc3)CC2)c1` (racemic) has an IC50 of 170 nM.
Molecule `O=C(NCCCN1CCC(Cc2ccc(F)cc2)CC1)Nc1ccccc1[N+](=O)[O-]` has an IC50 of 89 nM.
`N#Cc1cccc(NC(=O)NCCCN2CCC(Cc3ccc(F)cc3)CC2)c1` gave an IC50 of 20 nM.
With `O=C(NCCCN1CC[C@@H]2[C@H](C1)c1cccc3c1N2CC3)Nc1ccc(C(F)(F)F)cc1` the IC50 was 3700 nM.
`N#Cc1cccc(NC(=O)NCCCCN2CCC(Cc3ccccc3)CC2)c1` gave an IC50 of 500 nM.
In the case of `O=C(NCCCN1CCC(Cc2ccc(F)cc2)CC1)Nc1ccc([N+](=O)[O-])cc1`, the IC50 is reported as 7 nM.
For `CC(=O)c1cccc(NC(=O)NCCCN2CC[C@H](Cc3ccccc3)C[C@@H]2[C@@H](O)CC(C)C)c1`, the IC50 was 20 nM.
`CC(=O)c1cccc(NC(=O)NCCCN2CC[C@H](Cc3ccccc3)C[C@@H]2[C@@H](O)C(C)C)c1` showed an IC50 of 50 nM.
`CC(=O)c1cccc(NC(=O)NCCCN2CC[C@H](Cc3ccccc3)C[C@@H]2Cc2ccccc2)c1` gave an IC50 of 200 nM.
`N#Cc1cccc(NC(=O)NCCCN2CCC(Cc3ccccc3)CC2)c1` gave an IC50 of 200 nM.
`N#Cc1ccc(NC(=O)NCCCN2CCC(Cc3ccc(F)cc3)CC2)cc1` showed an IC50 of 20 nM.
`COc1cccc(NC(=O)N2CCCC(CN3CCC(Cc4ccccc4)CC3)C2)c1` (racemic) showed an IC50 of 330 nM.
`CC(=O)c1cccc(NC(=O)NCCCN2CC[C@H](Cc3ccccc3)C[C@@H]2[C@H](O)C(C)C)c1` showed an IC50 of 100 nM.
`COc1cccc(NC(=O)N2CCC(CN3CCC(Cc4ccc(F)cc4)CC3)C2)c1` (racemic) gave an IC50 of 240 nM.
Molecule `N#Cc1cccc(NC(=O)NCCCN2CCC(Cc3ccc(Cl)cc3)CC2)c1` has an IC50 of 20 nM.
With `COc1cccc(NC(=O)NCCCN2CCC(Cc3ccc(F)cc3)CC2)c1` the IC50 was 30 nM.
Molecule `O=C(NCCCN1CCC(Cc2ccc(F)cc2)CC1)Nc1cccc(C(F)(F)F)c1` has an IC50 of 70 nM.
`CC[C@H](O)[C@H]1C[C@@H](Cc2ccccc2)CCN1CCCNC(=O)Nc1cccc(C(C)=O)c1` (stereo in doubt; 85) gave an IC50 of 6 nM.
For `CS(=O)(=O)c1cccc(NC(=O)NCCCN2CCC(Cc3ccc(F)cc3)CC2)c1`, the IC50 was 20 nM.
`CCC[C@H]1C[C@@H](Cc2ccccc2)CCN1CCCNC(=O)Nc1cccc(C(C)=O)c1` (stereo in doubt; 79) gave an IC50 of 100 nM.
`COc1cccc(NC(=O)N2CCCC(N3CCC(Cc4ccc(F)cc4)CC3)C2)c1` (racemic) gave an IC50 of 530 nM.
For `O=C(NCCCN1CCC(Cc2ccccc2)CC1)Nc1ccc(C(F)(F)F)cc1`, the IC50 was 1200 nM.
In the case of `O=S(=O)(NCCCN1CC[C@@H]2[C@H](C1)c1cccc3c1N2CC3)c1ccc(F)cc1`, the IC50 is reported as 10100 nM.
In the case of `N#Cc1cccc(NC(=O)NCCCCCN2CCC(Cc3ccccc3)CC2)c1`, the IC50 is reported as 1200 nM.
`O=C(NCCCN1CCC(Cc2ccc(F)cc2)CC1)NC12CC3CC(CC(C3)C1)C2` showed an IC50 of 90 nM.
`O=C(NCCCN1CCC(Cc2ccc(F)cc2)CC1)NCc1ccccc1` showed an IC50 of 400 nM.
`N#Cc1cccc(NC(=O)NCCCN2CC[C@@H]3[C@H](C2)c2cccc4c2N3CC4)c1` was tested, and the IC50 was 700 nM.
With `CCCC[C@H](O)[C@H]1C[C@@H](Cc2ccccc2)CCN1CCCNC(=O)Nc1cccc(C(C)=O)c1` (stereo in doubt; form 2) the IC50 was 80 nM.
`CC(=O)c1cccc(NC(=O)NCCCN2CC[C@H](Cc3ccccc3)C[C@@H]2C(C)(O)O)c1` was tested, and the IC50 was 50 nM.
Molecule `COc1cccc(NC(=O)N2CCC(CN3CCC(Cc4ccccc4)CC3)CC2)c1` has an IC50 of 1600 nM.
Work on `O=C(NCCCN1CCC(Cc2ccc(F)cc2)CC1)Nc1cccc(-c2ncc[nH]2)c1` yielded an IC50 of 100 nM.
Molecule `COc1cccc(NC(=O)N2CCC(N3CCC(Cc4ccccc4)CC3)CC2)c1` has an IC50 of 2300 nM.
In the case of `CCCC[C@H](O)[C@H]1C[C@@H](Cc2ccccc2)CCN1CCCNC(=O)Nc1cccc(C(C)=O)c1` (stereo in doubt; form 1), the IC50 is reported as 1 nM.
Work on `O=C(NCCCN1CCC(Cc2ccc(F)cc2)CC1)Nc1cccc([N+](=O)[O-])c1` yielded an IC50 of 9 nM.
With `O=C(NCCCN1CCC(Cc2ccc(F)cc2)CC1)NCCc1ccccc1` the IC50 was 300 nM.
In the case of `CC[C@H](O)[C@H]1C[C@@H](Cc2ccccc2)CCN1CCCNC(=O)Nc1cccc(C(C)=O)c1` (stereo in doubt), the IC50 is reported as 8 nM.
`C[S+]([O-])c1cccc(NC(=O)NCCCN2CCC(Cc3ccc(F)cc3)CC2)c1` (centres undefined) showed an IC50 of 50 nM.
Work on `O=C(NCCCN1CC[C@@H]2[C@H](C1)c1cccc3c1N2CC3)c1ccc(F)cc1` yielded an IC50 of 5500 nM.
`N#Cc1ccc(C(=O)NCCCCN2CCC(Cc3ccccc3)CC2)cc1` was tested, and the IC50 was 1300 nM.
`COc1cccc(C(=O)NCCCCN2CC[C@@H]3[C@H](C2)c2cccc4c2N3CC4)c1` gave an IC50 of 8100 nM.
Molecule `O=S(=O)(NCCCCN1CC[C@@H]2[C@H](C1)c1cccc3c1N2CC3)c1ccc(F)cc1` has an IC50 of 6400 nM.
With `CC[C@@H](O)[C@H]1C[C@@H](Cc2ccccc2)CCN1CCCNC(=O)Nc1cccc(C(C)=O)c1` the IC50 was 50 nM.
In the case of `CSc1cccc(NC(=O)NCCCN2CCC(Cc3ccc(F)cc3)CC2)c1`, the IC50 is reported as 20 nM.
For `C[S+]([O-])c1ccc(NC(=O)NCCCN2CCC(Cc3ccc(F)cc3)CC2)cc1` (centres undefined), the IC50 was 200 nM.
In the case of `O=C(NCCCCN1CCC(Cc2ccccc2)CC1)c1ccc(F)cc1`, the IC50 is reported as 1000 nM.
With `COc1cccc(NC(=O)N2CCO[C@H](CN3CCC(Cc4ccc(F)cc4)CC3)C2)c1` the IC50 was 30 nM.
In the case of `O=C(NCCCN1CCC(Cc2ccc(F)cc2)CC1)NC1CCCCC1`, the IC50 is reported as 100 nM.
`COc1ccccc1C(=O)NCCCCN1CC[C@@H]2[C@H](C1)c1cccc3c1N2CC3` was tested, and the IC50 was 6800 nM.

What follows are molecules tested against T2, C-C chemokine receptor type 3 (Homo sapiens) (UniProt P51677) (assay: In vitro inhibitory activity against C-C chemokine receptor type 3 at 10 uM using 150p M [125I]-labeled human eotaxin).
T2 sequence (whole entry): T1 sequence (P51677 whole entry)
Work on `NCCN1CC[C@@H]2[C@H](C1)c1cccc3c1N2CC3` yielded an inhibition of 15%.
`O=C(NCCCCN1CC[C@@H]2[C@H](C1)c1cccc3c1N2CC3)C12CC3CC(CC(C3)C1)C2` was tested, and the inhibition was 73%.
`Fc1ccc(CN2CC[C@@H]3[C@H](C2)c2cccc4c2N3CC4)cc1` gave an inhibition of 15%.
With `Fc1ccc(CCN2CC[C@@H]3[C@H](C2)c2cccc4c2N3CC4)cc1` the inhibition was 50%.
Molecule `NCCCCN1CC[C@@H]2[C@H](C1)c1cccc3c1N2CC3` has an inhibition of 5%.
With `NCCCN1CC[C@@H]2[C@H](C1)c1cccc3c1N2CC3` the inhibition was 14%.
